Source: paper PMC7006686, “A class of carbonic anhydrase IX/XII – selective carboxylate inhibitors” (Journal of Enzyme Inhibition and Medicinal Chemistry, 2020)
Where two headings read alike, the source gives them in different places.

Experiments:
Experiment in all cases: stopped-flow CO2 hydrase assay
Assay type in all cases: biochemical
[1] = biological target: T1, hCA II (Homo sapiens, UniProt P00918)
T1 construct: gene CA2; recombinant, obtained in-house; cytosolic isoform
From the text: stopped-flow CO2 hydrase assay on hCA II

[2] = biological target: T2, hCA IX (Homo sapiens, UniProt Q16790)
T2 construct: gene CA9; recombinant, obtained in-house
From the text: stopped-flow CO2 hydrase assay on hCA IX

[3] = biological target: T3, hCA I (Homo sapiens, UniProt P00915)
T3 construct: gene CA1; recombinant, obtained in-house; cytosolic isoform
T3 sequence (P00915 2-261): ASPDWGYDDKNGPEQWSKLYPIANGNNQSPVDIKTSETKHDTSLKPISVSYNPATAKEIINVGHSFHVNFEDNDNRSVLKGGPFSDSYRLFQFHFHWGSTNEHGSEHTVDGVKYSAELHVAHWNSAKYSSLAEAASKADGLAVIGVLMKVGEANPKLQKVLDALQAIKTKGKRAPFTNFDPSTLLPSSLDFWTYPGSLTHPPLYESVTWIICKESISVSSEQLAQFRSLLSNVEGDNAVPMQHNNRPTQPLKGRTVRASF
From the text: stopped-flow CO2 hydrase assay on hCA I

[4] = biological target: T4, hCA XII (Homo sapiens, UniProt O43570)
T4 construct: gene CA12; recombinant, obtained in-house
T4 sequence (O43570 25-354): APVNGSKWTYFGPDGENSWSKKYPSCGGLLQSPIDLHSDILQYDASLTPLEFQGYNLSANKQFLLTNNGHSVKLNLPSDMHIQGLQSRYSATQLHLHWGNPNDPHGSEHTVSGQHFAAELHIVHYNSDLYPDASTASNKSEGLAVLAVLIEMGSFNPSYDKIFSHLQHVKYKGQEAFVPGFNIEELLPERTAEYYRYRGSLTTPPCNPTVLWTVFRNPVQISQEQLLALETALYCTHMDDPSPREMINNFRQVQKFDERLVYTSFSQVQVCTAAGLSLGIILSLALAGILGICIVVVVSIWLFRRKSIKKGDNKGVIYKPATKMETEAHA
From the text: stopped-flow CO2 hydrase assay on hCA XII

Structure (SMILES) | Ki [1] | Ki ([2]; read-out: hCA IX) | Ki [3] | Ki [4] | Ki ([2]; read-out: hCA I)
O=C(O)CN1C(=O)SC(=Cc2ccccc2)C1=O [3a, 2-(5-benzylidene-2,4-dioxothiazolidin-3-yl)acetic acid] | > 100 µM | 22.2 µM | > 100 µM | 0.58 µM | –
Cc1ccc(C=C2SC(=O)N(CC(=O)O)C2=O)cc1 [3b] | > 100 µM | – | > 100 µM | 0.93 µM | > 100 µM
O=C(O)CN1C(=O)SC(=Cc2ccc(Cl)cc2)C1=O [3c, 2-(5-(4-chlorobenzylidene)-2,4-dioxothiazolidin-3-yl)acetic acid] | > 100 µM | 3.1 µM | > 100 µM | 0.66 µM | –
O=C(O)CN1C(=O)SC(=Cc2ccccc2Cl)C1=O [3d, 2-(5-(2-chlorobenzylidene)-2,4-dioxothiazolidin-3-yl)acetic acid] | > 100 µM | 24.1 µM | > 100 µM | 0.47 µM | –
O=C(O)CN1C(=O)SC(=Cc2ccc(Br)cc2)C1=O [3e, 2-(5-(4-bromobenzylidene)-2,4-dioxothiazolidin-3-yl)acetic acid] | > 100 µM | 33.3 µM | > 100 µM | 0.91 µM | –
COc1ccc(C=C2SC(=O)N(CC(=O)O)C2=O)cc1 [3f, 2-(5-(4-methoxybenzylidene)-2,4-dioxothiazolidin-3-yl) acetic acid] | > 100 µM | 3.2 µM | > 100 µM | 0.85 µM | –
COc1cccc(C=C2SC(=O)N(CC(=O)O)C2=O)c1 [3g, 2-(5-(3-methoxybenzylidene)-2,4-dioxothiazolidin-3-yl) acetic acid] | > 100 µM | – | > 100 µM | 0.3 µM | > 100 µM
